The results in this text go back to paper PMC9664868, “Dephospho-Coenzyme A Kinase Is an Exploitable Drug Target against Plasmodium falciparum: Identification of Selective Inhibitors by High-Throughput Screening of a Large Chemical Compound Library” (Antimicrobial Agents and Chemotherapy, 2022).

Series [1] has as its target T1, PfDPCK (Plasmodium falciparum, UniProt Q8IL34). The experiment in a line: PfDPCK inhibition, enzyme-coupled fluorescence ADP detection assay (HTS and IC50 determination). Format: biochemical. The method, then: High-throughput screening against recombinant PfDPCK was performed using the Drug Discovery Initiative (DDI) full library, available from The University of Tokyo, composed of approximately 210,000 compounds. The primary assay was performed on 1,536-well white plate format with a final volume of 2 μL/well, containing 10 μM test compounds using a Multidrop Combi reagent dispenser (Thermo Fisher Scientific, Waltham, MA). The reaction was conducted in the assay buffer described above with 100 μM ATP and 50 μM dephospho-CoA. The assay was carried out at room temperature for 4 h in a closed plastic container with wet tissues. The reaction was stopped, and produced ADP was quantified using an enzyme-coupled fluorescence ADP detection assay, using PHERAstar microplate reader (BMG Labtech, Offenburg, Germany) with excitation at 540 nm and emission at 590 nm, as previously described ([17]). The inhibition level was calculated as the percentage inhibition of DPCK activity with each compound compared to the activity with only dimethyl sulfoxide (DMSO) as control (no inhibition) and that with no enzyme as 100% inhibition. IC50 values of the hit compounds were determined under the same assay conditions for the screening: Z′ factor, signal-to-background ratio (S/B), signal-to-noise ratio (S/N), and coefficient of variation (CV) were calculated to estimate the quality of screening system as previously described ([18], [38]).
The primary hits were reassayed in quadruplicate (n = 4) as in the primary screening. We next tested the confirmed secondary hits to exclude false positives that inhibit coupled fluorescence assay, but not PfDPCK. After exclusion of false positives, all tertiary hits were tested against human HsCOASY in the counterassay to exclude compounds that inhibit both PfDPCK and HsCOASY. The compounds showing >10% inhibition against HsCOASY were excluded from further studies. The IC50 values of the hit compounds were determined under the same assay conditions described as above for the primary screening, with the serially diluted compounds at 20, 10, 2.5, 0.5, and 0.1 μM at final concentrations. The assay was conducted in quadruplicate for each dilution, and IC50 values were calculated using GraphPad Software (San Diego, California USA).

The subject of series [2] is P. falciparum drug-sensitive 3D7 strain. Kind of series: Erythrocytic-stage parasite growth inhibition, diaphorase-coupled LDH assay, 3D7. Format: cell-based, Plasmodium falciparum. To be noted: for Selectivity index IC50 (HepG2/3D7): HepG2 IC50 / 3D7 IC50. How it is done:
(§1) Selected hit compounds were also tested against erythrocytic-stage parasites of P. falciparum drug-sensitive 3D7 and drug-resistant Dd2 strains ([39]). For the phenotypic assay, parasite cultures were synchronized with 5% (wt/vol) D-sorbitol as previously described ([40]). A synchronized culture containing ring-stage parasites of 0.3% parasitemia was initiated with a culture volume of 25 μL/well on a 384-well plate. A series of diluted compounds (at final concentrations of 50, 10, 2, 0.4, and 0.08 μM) were used to calculate IC50 values. Mefloquine at 50 μM and atovaquone at 20 μM were used as no-growth control (100% inhibition). After 72 h of incubation, parasite growth was measured by diaphorase-coupled lactate dehydrogenase (LDH) assay as previously described ([41]). Absorbance at 650 nm was measured using SpectraMax Paradigm multimode microplate reader (Molecular Devices, San Jose, CA, USA). The IC50 values were calculated as described above.

Series [3] has as its system P. falciparum drug-resistant Dd2 strain. Kind of series: Erythrocytic-stage parasite growth inhibition, diaphorase-coupled LDH assay, Dd2. The series is classed as cell-based, Plasmodium falciparum. To be noted: for IC50: Plasmodium falciparum. How it is done:
as §1

For another series, the system named is HepG2 cell line. The experiment in a line: Cytotoxicity assay (Cell Counting Kit-8). The series is classed as cell-based, human. To be noted: Homo sapiens. The method, then:
Cytotoxicity against human cells was evaluated using the human liver carcinoma HepG2 cell line. HepG2 cells were cultured in D-MED supplemented with 4 mM L-glutamine and 10% fetal bovine serum (FBS) in a 75-cm^2 flask (Violamo) at 37°C. For the cytotoxicity assay, HepG2 cells in semiconfluent state were detached from the flask by incubating the cells with 5 mL D-MEM containing 0.25% trypsin-EDTA. After detachment, HepG2 cells were resuspended in D-MEM-supplemented L-glutamine and FBS, and cell viability was evaluated by incubating cells with 0.4% Trypan blue on a hemocytometer. An approximately 50-μL suspension containing 3,000 cells was dispensed into each well on a 384-well clear-bottom plate using a Multidrop Combi dispenser. Compounds dissolved in DMSO had been dispensed into wells to yield final concentrations of 100, 20, 4, 0.8, and 0.2 μM before cells were added. After cells were added to the plates, they were cultured at 37°C under 5% CO2. After 48 h cultivation, 5 μL of Cell Counting Kit-8 (Dojindo, Japan) was added, and the plates were further incubated for 2 h to assess cell growth and survival.

For series [4], the target named is T1, PfDPCK. The experiment in a line: Mechanism of PfDPCK inhibition by Lineweaver-Burk plot. The series is classed as biochemical. The method, then:
In order to understand the mechanism of PfDPCK inhibition of the identified compounds, we independently selected compounds from 359 PfDPCK-specific inhibitor candidates (showing >40% inhibition at 10 μM against PfDPCK), based on the more stringent criteria of >80% inhibition at 10 μM against PfDPCK and <10% inhibition against HsCOASY, to yield 30 hits. The hits were prioritized using a multiparameter optimization (MPO) scoring model, developed by MMV (https://www.optibrium.com/downloads/scoring-profiles/mmv-antimalarial-scoring-profile/) based on calculated physicochemical properties, including molecular weight, logP, hydrogen bond donors and acceptors, rotatable bonds, and structural alerts ([20], [21]). We finally chose six representative compounds (A-15, A-33, and A-69, shown in Table S1, and other three compounds; A-126, A-127, and A-128) by manual inspection with “chemist eye” for chemical attractiveness (druglikeness). […] Furthermore, two compounds, A-33 and A-69, are considered to be pan-assay interference compounds (PAINS) (phenolic Mannich base) ([22]). We consequently focused on two commercially available compounds (A-15 and A-127) (Fig. 6A) and investigated their mechanism of inhibition. We differentiated the type of inhibition by Lineweaver-Burk plot with various concentrations of one substrate (dephospho-CoA or ATP), while the other substrate was given in saturating concentrations in kinetic studies (Fig. 5).
FIG 5 Lineweaver-Burk plots showing inhibition of two compounds, compound A-15 (A, B) and compound A-127 (C, D) on the PfDPCK activity. The enzymatic activities were determined with various concentrations of dephospho-CoA and 200 μM ATP (A, C) or various concentrations of ATP and 200 μM dephospho-CoA (B, D) in the presence of a range of concentrations of inhibitors. Data are shown in means ± SEMs of triplicate.
(§2) PfDPCK and HsCOASY activity was measured by quantifying ADP produced in the reaction by a coupling assay using the ADP Hunter Plus assay kit (DiscoverX, USA) according to the manufacturer's instructions. Briefly, enzymatic reactions were carried out in a 20-μL mixture of assay buffer containing 15 mM HEPES, 20 mM NaCl, 1 mM EGTA, 0.02% Tween 20, 10 mM MgCl2, 0.1% bovine gamma globulin, 50 ng of recombinant PfDPCK or HsCOASY, 4 to 256 μM dephospho-CoA, and 5 to 300 μM ATP on a black microplate. All reactions were performed for 2 h, reagents A and B were added, and they were then reincubated for 60 min at 30°C. After reactions were terminated by addition of ADP Hunter Stop solution, the fluorescent signal was measured using SpectraMax Paradigm (Molecular Devices, CA, USA) at excitation and emission wavelengths of 530 and 590 nm, respectively. The kinetic parameters were calculated using the nonlinear regression function using the single saturating concentrations of the substrates by the GraphPad Prism software (GraphPad Software Inc., San Diego, CA). The experiments were repeated three times in triplicate using proteins purified from independent cultures. Kinetic values of enzymes are presented as the means ± standard errors (SEs).

In series [5] the target is T1, PfDPCK. The experiment in a line: Kinetic analysis of recombinant PfDPCK (ADP Hunter Plus). The series is classed as biochemical. To be noted: as a substrate of PfDPCK. The method, then:
as §2

Substrate in series [6]: CC(C)(COP(=O)(O)OP(=O)(O)OCC1OC(n2cnc3c(N)ncnc32)C(O)C1O)C(O)C(=O)NCCC(=O)NCCS
The series is described as above. The series is classed as biochemical, Plasmodium falciparum. To be noted: other: substrate of PfDPCK; 30.0 °C. The method, then: as §2

[7] abbreviates: recombinant enzyme, means ± SEMs, read-out: IC50 (μM) of: PfDPCK.
The mark [8] stands for this setting: Plasmodium falciparum, drug-sensitive 3D7, 72 h, means ± SEMs, read-out: IC50 (μM) of: Pf cell 3D7.
The mark [9] stands for this setting: drug-resistant Dd2, 72 h, means ± SEMs, read-out: IC50 (μM) of: Pf cell Dd2.
The mark [10] stands for this setting: HepG2, ND (maximum concentration tested 100 μM), read-out: IC50 (μM) of: HepG2.
[11] abbreviates: HepG2, 48 h, means ± SEMs, read-out: IC50 (μM) of: HepG2.

Where two headings read alike, the source gives them in different places. Bounds are passed on as bounds.

For `O=C(O)C1NC(c2ccncc2)C23c4c5c6c7c8c9c(c%10c%11c2c2c4c4c%12c5c5c6c6c8c8c%13c9c9c%10c%10c%11c%11c2c2c4c4c%12c%12c5c5c6c8c6c8c%13c9c9c%10c%10c%11c2c2c4c4c%12c5c6c5c8c9c%10c2c45)C713` (stereo not shown) [Compound A-45], the IC50 was 6.68 ± 0.24 µM against PfDPCK [1]; 15.6 ± 0.61 µM in series [2] (Plasmodium falciparum, 3D7, 72 h, read-out: IC50 (μM) of: Pf cell 3D7); 1.29 ± 0.02 µM in series [3] (DD2, 72 h, read-out: IC50 (μM) of: Pf cell Dd2); more than 100 µM with HepG2 cell line (HepG2, read-out: IC50 (μM) of: HepG2).

For the molecule `COC(C(=O)N/N=C/c1ccccc1)c1ccccc1` (stereo not shown) [Compound A-50], the 50% inhibitory concentration (IC50) is 6.99 ± 0.13 µM at PfDPCK [1] (setting [7]), more than 50 µM in series [2] (setting [8]), 6.62 ± 1.12 µM in series [3] (setting [9]) and more than 100 µM with HepG2 cell line (setting [10]).

As to `Cc1cn2c(/C=C3\C(=O)N(C)c4ccccc43)c(C)nc2s1` [Compound A-51], the IC50 at PfDPCK [1] (setting [7]) is 7.05 ± 0.08 µM; in series [2] (setting [8]), 15.76 ± 0.12 µM; in series [3] (setting [9]), 0.62 ± 0.23 µM; in the series with HepG2 cell line (setting [11]) it was more than 100 µM. Also, in series [2], the “Selectivity index IC50 (HepG2/3D7)” value is more than 6.3. Also, the “Selectivity index IC50 (HepG2/Dd2)” value in series [3] is listed as more than 166.6.

In the case of `O=C1NC(=O)/C(=C/c2ccc(C(=O)Nc3ccc(O)cc3C(=O)O)cc2)S1` [Compound A-60], the IC50 on PfDPCK [1] (setting [7]) was 8.35 ± 0.05 µM; in series [2] (setting [8]), 34.14 ± 0.04 µM; in series [3] (setting [9]), 5.53 ± 0.95 µM; in the series with HepG2 cell line (setting [10]), more than 100 µM.

Regarding `O=Cc1cc(C23CC4CC(CC(C4)C2)C3)cc([N+](=O)[O-])c1O` [Compound A-63], the IC50 is 8.69 ± 0.01 µM at PfDPCK [1] (setting [7]), 6.04 ± 0.05 µM in series [2] (setting [8]), 0.7 ± 0.22 µM in series [3] (setting [9]) and more than 100 µM in the series on HepG2 cell line (setting [11]). Also, the “Selectivity index IC50 (HepG2/3D7)” value in series [2] was more than 16.6. Moreover, the “Selectivity index IC50 (HepG2/Dd2)” value in series [3] is more than 142.8.

As for `S=C(NCCc1ccccc1)NNc1nc2ccccc2[nH]1` [Compound A-65], the IC50 was 9.21 ± 0.12 µM on PfDPCK [1] (setting [7]), 4.4 ± 0.05 µM in series [2] (setting [8]), 0.36 ± 0.1 µM in series [3] (setting [9]) and more than 100 µM in the series on HepG2 cell line (setting [10]).

For `COc1cc(N2CCCC2)cc2ccc(-c3ccccn3)nc12` [Compound A-127], the IC50 is 5.01 ± 0.46 µM at PfDPCK [1] (Table S1, means ± SEM, read-out: IC50 (μM) Pf DPCK); less than 2 µM in series [2] (Plasmodium falciparum, 3D7, Table S1, means ± SEM, read-out: IC50 (μM) Pf cell 3D7); less than 10 µM in series [3] (DD2, Table S1, means ± SEM, read-out: IC50 (μM) Pf cell Dd2). The inhibition at 2 µM in series [2] (Plasmodium falciparum, 3D7, at 2 μM, read-out: growth inhibition against 3D7) turned out to be 80%. The Ki on PfDPCK [4] (in respect of ATP, 200 μM dephospho-CoA) was found to be 8.99 µM; on PfDPCK [4] (in respect of dephospho-CoA, 200 μM ATP), 14.9 µM. In addition, on PfDPCK [4] (in respect of dephospho-CoA and ATP, Lineweaver-Burk plot), the type of inhibition result is “uncompetitive or noncompetitive inhibition”.

Consider `CC(C)(CO)[C@@H](O)C(=O)NCCC(=O)O` [pantothenate], for which, at PfDPCK [5], the specific activity was less than 0.01 µmol/min/mg.

B1: PfDPCK (Plasmodium falciparum 3D7) (protein)
chain: MFLKFFLDKCILCFLALGSIPIGYINRKNKFRKIENQKYALFSSIVMNSFLIYLNKFFGILGIFNFFLGNYLCLIGITGGIAVGKSTFCNFLKKKDVVVINADEITSKIYTKDSICYKKIVKHFGENILNNDKSINRTLLRKIVFNNEENVKYINKITHTYIILQIIKECLKYKFLYFKYNVAIEAPLLIETKLYLLTSPVILLKSSVRNQIKRILSRDKNCTYDTAMGIIKNQLPTDEKIKYADIIINNDGDILDLQMKCDVVYNKYLKNFFF
On to B1, for which the Km in series [6] was 105.3 ± 10.2 µM.
